Assay results taken from patent US9521846B2, “Template-fixed peptidomimetics with antimicrobial activity” (priority 2006, dated 2016).
≈ marks a conversion by molar mass, not a printed value. Non-standard residues stand in square brackets, D forms with d. Residues, ends and D or L forms follow the SMILES beside them. Cha = N[C@@H](CC1CCCCC1)C(=O)O; Chg = N[C@H](C(=O)O)C1CCCCC1; dDab = NCC[C@@H](N)C(=O)O; Nle = CCCC[C@H](N)C(=O)O; Dab = NCC[C@H](N)C(=O)O; Nva = CCC[C@H](N)C(=O)O

Columns and labels:
[1] = test system: P. aeruginosa ATCC 27853; format: cell-based, Pseudomonas aeruginosa; settings: ATCC 27853
Description: (§1) The selective antimicrobial activities of the peptides were determined in 96-well plates (Nunclon polystyrene) by the standard NCCLS broth microdilution method (see ref 1, below) with slight modifications. Innocula of the microorganisms were diluted into Mueller-Hinton (MH) broth+0.02% BSA and compared with a 0.5 Mcfarland standard to give appr. 10^6 colony forming units (CFU)/ml. Aliquots (50 μl) of inoculate were added to 50 μl of MH broth+0.02% BSA containing the peptide in serial two-fold dilutions. The following microorganisms were used to determine antibiotic selectivity of the peptides: Escherichia coli (ATCC 25922), Pseudomonas aeruginosa (P. aeruginosa ATCC 27853, P8191900, P1021903, P1021913, IMP 1 Livermore 3140).

[2] = test system: Pseudomonas aeruginosa IMP 1 Livermore 3140; format: cell-based; settings: IMP 1 Livermore 3140
Description: as §1

[3] = test system: Pseudomonas aeruginosa P1021903; format: cell-based; settings: P1021903
Description: as §1

[4] = test system: Pseudomonas aeruginosa P1021913; format: cell-based; settings: P1021913
Description: as §1

[5] = test system: Pseudomonas aeruginosa P8191900; format: cell-based; settings: P8191900
Description: as §1

[6] = test system: HELA cells (Acc57); experiment: Cytotoxicity assay, MTT reduction (LC 50, GI 50); format: cell-based
Description: The cytotoxicity of the peptides to HELA cells (Acc57) and COS-7 cells (CRL-1651) was determined using the MIT reduction assay [see ref. 2 and 3, below]. Briefly the method was as follows: HELA cells and COS-7 cells were seeded at 7.0×10^3 and, respectively, 4.5×10^3 cells per well and grown in 96-well […] plates for 24 hours at 37° C. at 5% CO2. At this point, time zero (Tz) was determined by MTT reduction (see below). The supernatant of the remaining wells was discarded, and fresh medium and the peptides in serial dilutions of 12.5, 25 and 50 μM were dispensed into the wells. Each peptide concentration was assayed in triplicate. Incubation of the cells was continued for 48 hours at 37° C. at 5% CO2. Wells were then washed once with phosphate buffered saline (PBS) and subsequently 100 μl MIT reagent (0.5 mg/ml in medium RPMI1640 and, respectively, DMEM) were added to the wells. This was incubated at 37° C. for 2 hours and subsequently the medium was aspirated and 100 μl isopropanol were added to each well. The absorbance at 595 nm of the solubilized product was measured (OD595peptide). For each concentration averages were calculated from triplicates. The percentage of growth was calculated as follows: (OD595peptide-OD595Tz-OD595Empty well)/(OD595Tz-OD595Empty well)×100% and was plotted for each peptide concentration.
The LC 50 values (Lethal Concentration, defined as the concentration that kills 50% of the cells) were determined for each peptide by using the trend line function of EXCEL (Microsoft Office 2000) for the concentrations (50, 25, 12.5 and 0 μM), the corresponding growth percentages and the value −50, (=TREND(C50:C0,%50:%0,−50)). The GI 50 (Growth Inhibition) concentrations were calculated for each peptide by using a trend line function for the concentrations (50, 25, 12.5 and 0 […]), the corresponding percentages and the value 50, (=TREND (C50:C0,%50:%0,50).

[7] = test system: human red blood cells (hRBC); experiment: Hemolysis; format: cell-based; settings: 100
Description: Hemolysis of red blood cells is often employed for assessment of toxicity of related compounds such as protegrin or tachyplesin. Values are given as %-lysis of red blood cells observed at a concentration of 100 μg/ml. Typical values determined for cationic peptides such as protegrin and tachyplesin range between 30-40% with average MIC-values of 1-5 μg/ml over a wide range of pathogens.
The peptides were tested for their hemolytic activity against human red blood cells (hRBC). Fresh hRBC were washed three times with phosphate buffered saline (PBS) by centrifugation for 10 min at 2000×g. Peptides at a concentration of 100 μM were incubated with 20% v/v hRBC for 1 hour at 37° C. The final erythrocyte concentration was approximately 0.9×10^9 cells per ml. A value of 0% and, respectively, 100% cell lysis was determined by incubation of the hRBC in the presence of PBS alone and, respectively, 0.1% Triton X-100 in H2O. The samples were centrifuged, the supernatant was 20-fold diluted in PBS buffer and the optical density (OD) of the sample at […] was measured. The 100% lysis value (OD540H20) gave an OD540 of approximately 1.3-1.8. Percent hemolysis was calculated as follows: (OD540peptide/OD540H20)×100%.

[8] = test system: P. aeruginosa

| MIC P. aeruginosa ATCC 27853 [1] [µg/mL] | MIC P. aeruginosa IMP1 Livermore 3140 [2] [µg/mL] | MIC P. aeruginosa P1021903 [3] [µg/mL] | MIC P. aeruginosa P1021913 [4] [µg/mL] | MIC P. aeruginosa P8191900 [5] [µg/mL] | Average MIC [8] [µg/mL] | Compound | Cytotoxicity GI50 Hela cells [6] [µM] | Hemolysis at 100 μg/ml [7] [%] |
| --- | --- | --- | --- | --- | --- | --- | --- | --- |
| 0.21 (≈ 0.129 µM) | >2 | 1.50 (≈ 0.924 µM) | 0.75 (≈ 0.462 µM) | 0.75 (≈ 0.462 µM) | >1 | CCCC[C@@H]1NC(=O)[C@H](CCN)NC(=O)[C@H](CCN)NC(=O)[C@H](Cc2c[nH]c3ccccc23)NC(=O)[C@H](CCN)NC(=O)[C@H](CCN)NC(=O)[C@H](CCCCN)NC(=O)[C@H](CCN)NC(=O)[C@H]([C@@H](C)CC)NC(=O)[C@H](Cc2c[nH]c3ccccc23)NC(=O)[C@H]([C@@H](C)O)NC(=O)[C@@H]2CCCN2C(=O)[C@H]2CCCN2C(=O)[C@H](CCN)NC1=O [Example 9] (cyclo(TWI[Dab]K[Dab][Dab]W[Dab][Dab][Nle][Dab][dP]P)) | 50 | 0.7 |
| 0.05 (≈ 0.0311 µM) | 0.43 (≈ 0.267 µM) | 0.13 (≈ 0.0808 µM) | 0.37 (≈ 0.23 µM) | 0.18 (≈ 0.112 µM) | 0.23 | CCC[C@@H]1NC(=O)[C@H](CCN)NC(=O)[C@H](CCN)NC(=O)[C@H](Cc2c[nH]c3ccccc23)NC(=O)[C@H](CCN)NC(=O)[C@H](CCN)NC(=O)[C@H](CCCCN)NC(=O)[C@H](CCN)NC(=O)[C@H]([C@@H](C)CC)NC(=O)[C@H](Cc2c[nH]c3ccccc23)NC(=O)[C@H]([C@@H](C)O)NC(=O)[C@@H]2CCCN2C(=O)[C@H]2CCCN2C(=O)[C@H](CCN)NC1=O [Example 10] (cyclo(TWI[Dab]K[Dab][Dab]W[Dab][Dab][Nva][Dab][dP]P)) | 50 | 0 |
| 0.30 (≈ 0.182 µM) | >2 | 2.00 (≈ 1.21 µM) | 0.75 (≈ 0.455 µM) | 1.00 (≈ 0.606 µM) | >1 | CC[C@H](C)[C@@H]1NC(=O)[C@H](Cc2c[nH]c3ccccc23)NC(=O)[C@H]([C@@H](C)O)NC(=O)[C@@H]2CCCN2C(=O)[C@H]2CCCN2C(=O)[C@H](CCN)NC(=O)[C@H](C2CCCCC2)NC(=O)[C@H](CCN)NC(=O)[C@H](CCN)NC(=O)[C@H](Cc2c[nH]c3ccccc23)NC(=O)[C@H](CCN)NC(=O)[C@H](CCN)NC(=O)[C@H](CCCCN)NC(=O)[C@H](CCN)NC1=O [Example 11] (cyclo(TWI[Dab]K[Dab][Dab]W[Dab][Dab][Chg][Dab][dP]P)) | 50 | 0.5 |
| 0.02 (≈ 0.0127 µM) | 0.25 (≈ 0.158 µM) | 0.03 (≈ 0.019 µM) | 0.25 (≈ 0.158 µM) | 0.05 (≈ 0.0316 µM) | 0.12 | CC[C@H](C)[C@@H]1NC(=O)[C@H](Cc2c[nH]c3ccccc23)NC(=O)[C@H]([C@@H](C)O)NC(=O)[C@@H]2CCCN2C(=O)[C@H]2CCCN2C(=O)[C@H](CCN)NC(=O)[C@H](C)NC(=O)[C@H](CCN)NC(=O)[C@H](CCN)NC(=O)[C@H](Cc2c[nH]c3ccccc23)NC(=O)[C@H](CCN)NC(=O)[C@@H](CCN)NC(=O)[C@H](CCCCN)NC(=O)[C@H](CCN)NC1=O [Example 41] (cyclo(TWI[Dab]K[dDab][Dab]W[Dab][Dab]A[Dab][dP]P)) | 50 | 0.2 |
| 0.13 (≈ 0.0808 µM) | 0.75 (≈ 0.466 µM) | 0.31 (≈ 0.193 µM) | 0.31 (≈ 0.193 µM) | 0.21 (≈ 0.131 µM) | 0.34 | CC[C@H](C)[C@@H]1NC(=O)[C@H](Cc2c[nH]c3ccccc23)NC(=O)[C@H]([C@@H](C)O)NC(=O)[C@@H]2CCCN2C(=O)[C@H]2CCCN2C(=O)[C@H](CCN)NC(=O)[C@H](C)NC(=O)[C@H](CCN)NC(=O)[C@H](CCN)NC(=O)[C@H](Cc2c[nH]c3ccccc23)NC(=O)[C@H](CCC(N)=O)NC(=O)[C@H](CCN)NC(=O)[C@H](CCCCN)NC(=O)[C@H](CCN)NC1=O [Example 39] (cyclo(TWI[Dab]K[Dab]QW[Dab][Dab]A[Dab][dP]P)) | 50 | 0.4 |
| 0.75 (≈ 0.467 µM) | >2 | 2.00 (≈ 1.24 µM) | 1.25 (≈ 0.778 µM) | 1.50 (≈ 0.933 µM) | >1 | CC[C@H](C)[C@@H]1NC(=O)[C@H](Cc2c[nH]c3ccccc23)NC(=O)[C@H]([C@@H](C)O)NC(=O)[C@@H]2CCCN2C(=O)[C@H]2CCCN2C(=O)[C@H](CCN)NC(=O)[C@@H]2CCCN2C(=O)[C@H](CCN)NC(=O)[C@H](CCN)NC(=O)[C@H](Cc2c[nH]c3ccccc23)NC(=O)[C@H](CCN)NC(=O)[C@H](CCN)NC(=O)[C@H](CCCCN)NC(=O)[C@H](CCN)NC1=O [Example 17] (cyclo(TWI[Dab]K[Dab][Dab]W[Dab][Dab]P[Dab][dP]P)) | 29 | 0.5 |
| 0.40 (≈ 0.241 µM) | >2 | 2.00 (≈ 1.2 µM) | 0.75 (≈ 0.451 µM) | 1.00 (≈ 0.601 µM) | >1 | CC[C@H](C)[C@@H]1NC(=O)[C@H](Cc2c[nH]c3ccccc23)NC(=O)[C@H]([C@@H](C)O)NC(=O)[C@@H]2CCCN2C(=O)[C@H]2CCCN2C(=O)[C@H](CCN)NC(=O)[C@H](CC2CCCCC2)NC(=O)[C@H](CCN)NC(=O)[C@H](CCN)NC(=O)[C@H](Cc2c[nH]c3ccccc23)NC(=O)[C@H](CCN)NC(=O)[C@H](CCN)NC(=O)[C@H](CCCCN)NC(=O)[C@H](CCN)NC1=O [Example 12] (cyclo(TWI[Dab]K[Dab][Dab]W[Dab][Dab][Cha][Dab][dP]P)) | 50 | 0.7 |
| 0.21 (≈ 0.129 µM) | >2 | 0.31 (≈ 0.191 µM) | 0.65 (≈ 0.4 µM) | 0.40 (≈ 0.246 µM) | >1 | CC[C@H](C)[C@@H]1NC(=O)[C@H](Cc2c[nH]c3ccccc23)NC(=O)[C@H]([C@@H](C)O)NC(=O)[C@@H]2CCCN2C(=O)[C@H]2CCCN2C(=O)[C@H](CCN)NC(=O)[C@H](CC(=O)O)NC(=O)[C@H](CCN)NC(=O)[C@H](CCN)NC(=O)[C@H](Cc2c[nH]c3ccccc23)NC(=O)[C@H](CCN)NC(=O)[C@H](CCN)NC(=O)[C@H](CCCCN)NC(=O)[C@H](CCN)NC1=O [Example 14] (cyclo(TWI[Dab]K[Dab][Dab]W[Dab][Dab]D[Dab][dP]P)) | 12 | 0.3 |
